Measured values from ChEMBL document CHEMBL4219248, “Design, in silico prioritization and biological profiling of apoptosis-inducing lactams amenable by the Castagnoli-Cushman reaction” (Bioorg Med Chem, 2018).

Assays:
HCT-116 [1] = experiment: Antiproliferative activity against human HCT116 p53-/- cells assessed as growth inhibition after 24 hrs by EdU/Hoechst 33342 staining-based fluorescence analysis; type: functional; conditions: HCT-116, 24 h
HCT-116 [2] = experiment: Antiproliferative activity against human HCT116 p53+/+ cells assessed as growth inhibition after 24 hrs by EdU/Hoechst 33342 staining-based fluorescence analysis; type: functional; conditions: HCT-116, 24 h
HCT-116 [3] = experiment: Induction of apoptosis in human HCT116 p53+ cells at 5 uM by Annexin V-FITC staining-based flow cytometric analysis relative to Nutlin-3a; type: functional
U2OS [4] = experiment: Cytotoxicity against human U2OS cells harboring p53-dependent EGFP reporter gene assessed as reduction in cell viability at 5 uM after 48 hrs; type: cell-based
U2OS [5] = experiment: Cytotoxicity against human U2OS cells harboring p53-dependent EGFP reporter gene assessed as reduction in cell viability at 30 uM after 48 hrs; type: cell-based

GI50 (HCT-116 [1]) | GI50 (HCT-116 [2]) | Compound | Activity (HCT-116 [3]) | Activity (U2OS [4]) | Activity (U2OS [5])
33 µM | 7 µM | CC(C)[C@@H](CS(=O)(=O)C(C)C)N1C(=O)[C@@](C)(CC(=O)O)C[C@H](c2cccc(Cl)c2)[C@H]1c1ccc(Cl)cc1 [NAVTEMADLIN] | 112% | – | –
– | – | CC(C)Oc1ccc([C@@H]2[C@@H](C(=O)NCc3ccc(-n4ccnc4)cc3)CCC(=O)N2c2ccc(OC3CCCC3)cc2)cc1 (relative stereo) | 35.2% | Toxic | –
29 µM | 8 µM | O=C(NCc1ccc2c(c1)OCO2)[C@H]1CC(=O)N(c2ccc(F)c(Cl)c2)[C@@H]1c1ccc(Cl)cc1 (racemic) | 90.7% | Toxic | –
– | – | CCOc1cccc(CNC(=O)[C@H]2OCC(=O)N(c3ccccc3)[C@@H]2c2cccc(F)c2)c1 (racemic) | 3.2% | Toxic | –
– | – | C=CCOc1ccc([C@@H]2[C@@H](C(=O)NCCc3ccc(OC)c(OC)c3)N(C(=O)c3cccc(F)c3)CC(=O)N2C)cc1OCC (racemic) | 0% | Toxic | –
– | – | COCCN(Cc1ccc(N(C)C)cc1)C(=O)[C@H]1CC(=O)N(c2ccc(F)c(F)c2)[C@@H]1c1ccc(Cl)cc1 (racemic) | 19.2% | Toxic | –
– | – | Cc1cccc([C@@H]2[C@@H](C(=O)NCc3ccc(Cl)cc3)OCC(=O)N2c2ccc(F)c(F)c2)c1 (racemic) | 7.1% | Toxic | –
– | – | CN(C)c1ccc([C@@H]2[C@@H](C(=O)NCc3ccccc3CN3CCCC3=O)OCC(=O)N2c2ccc(Cc3ccncc3)cc2)cc1 (racemic) | 0% | Toxic | –
81 µM | 26 µM | COc1cc(CNC(=O)[C@H]2CCC(=O)N(c3ccccc3)[C@@H]2c2ccc(Cl)cc2)ccc1OC(C)C (racemic) | 69.1% | Toxic | –
– | – | Cc1cccc([C@@H]2[C@@H](C(=O)NCc3ccccc3)OCC(=O)N2c2ccc(F)c(Cl)c2)c1 (racemic) | 3.7% | Toxic | –
80 µM | 30 µM | Cc1cccc(CNC(=O)[C@@H]2[C@@H](c3ccc(Cl)cc3)N(c3ccc(Cl)cc3)C(=O)CN2C(=O)c2ccncc2)c1 (racemic) | 63.4% | Toxic | –
65 µM | 19 µM | O=C(NCc1ccc2c(c1)OCO2)[C@H]1CC(=O)N(c2cccc(Cl)c2)[C@@H]1c1cccc(F)c1 (racemic) | 79.5% | Toxic | –
– | – | O=C(NCc1ccc2c(c1)OCCO2)[C@H]1CC(=O)N(c2ccc(F)c(F)c2)[C@@H]1c1ccc(Cl)cc1 (racemic) | 16% | Toxic | –
32 µM | 7 µM | O=C(NCc1ccccc1CN1CCCC1=O)[C@H]1CC(=O)N(c2ccc(F)c(Cl)c2)[C@@H]1c1ccc(Cl)cc1 (racemic) | 123.9% | Toxic | –
– | – | COc1ccc(CNC(=O)[C@H]2OCC(=O)N(c3cccc(Cl)c3)[C@@H]2c2cccc(F)c2)cc1 (racemic) | 0% | Toxic | –
– | – | CCOc1cccc(CNC(=O)[C@H]2OCC(=O)N(c3ccc(F)c(F)c3)[C@@H]2c2cccc(C)c2)c1 (mixture of isomers) | 10.3% | Toxic | –
– | – | COc1ccc(CN(CCCN2CCOCC2)C(=O)[C@H]2OCC(=O)N(c3ccc(Cc4ccncc4)cc3)[C@@H]2c2ccc(Cl)cc2)cc1 (racemic) | 1.6% | Toxic | –
– | – | Cc1cccc([C@@H]2[C@@H](C(=O)NCc3cccnc3)OCC(=O)N2c2ccc(F)c(F)c2)c1 (mixture of isomers) | 6.7% | Toxic | –
40 µM | 12 µM | O=C(NCc1ccc(Cl)cc1)[C@H]1OCC(=O)N(c2cccc(Cl)c2)[C@@H]1c1cccc(C(F)(F)F)c1 (relative stereo) | 84.6% | Toxic | –
– | – | COc1ccc(N2C(=O)CN(C(=O)c3ccncc3)[C@H](C(=O)NCc3cccc(C)c3)[C@H]2c2ccc(Cl)cc2)cc1 (racemic) | 11.1% | Toxic | –
– | – | Cc1ccc(CNC(=O)[C@H]2OCC(=O)N(c3ccc(F)c(Cl)c3)[C@@H]2c2cccc(F)c2)cc1 (racemic) | 20.1% | Toxic | –

GI50 (HCT-116 [1]) | GI50 (HCT-116 [2]) | Compound | Activity (HCT-116 [3]) | Activity (U2OS [4]) | Activity (U2OS [5])
– | – | CCOc1ccc(CNC(=O)[C@H]2OCC(=O)N(c3ccc(F)c(F)c3)[C@@H]2c2cccc(C)c2)cc1 (mixture of isomers) | 8.5% | Toxic | –
– | – | O=C(NCc1ccc2c(c1)OCO2)[C@H]1CC(=O)N(c2ccc(F)c(F)c2)[C@@H]1c1ccc(Cl)cc1 (mixture of isomers) | 16% | Toxic | –
62 µM | 18 µM | COc1ccc(CNC(=O)[C@H]2OCC(=O)N(c3ccc(F)c(Cl)c3)[C@@H]2c2ccc(Cl)cc2)cc1 (racemic) | 85.3% | Toxic | –
71 µM | 22 µM | COc1ccc(CNC(=O)[C@H]2CC(=O)N(c3ccc(F)c(Cl)c3)[C@@H]2c2ccc(Cl)cc2)c(OC)c1 (racemic) | 75% | Toxic | –
38 µM | 6 µM | CC(C)(C)C[C@@H]1N[C@@H](C(=O)N[C@H]2CC[C@H](O)CC2)[C@H](c2cccc(Cl)c2F)[C@]12C(=O)Nc1cc(Cl)ccc12 [SAR-405838] | 115% | – | –
– | – | Cc1cccc([C@@H]2[C@@H](C(=O)NCc3ccc(F)cc3)OCC(=O)N2c2ccc(F)c(Cl)c2)c1 (racemic) | 17% | Toxic | –
– | – | Cc1cccc([C@@H]2[C@@H](C(=O)NCc3ccccc3F)OCC(=O)N2c2ccc(F)c(Cl)c2)c1 (racemic) | 18.9% | Toxic | –
29 µM | 9 µM | COc1ccc(C2=N[C@@H](c3ccc(Cl)cc3)[C@@H](c3ccc(Cl)cc3)N2C(=O)N2CCNC(=O)C2)c(OC(C)C)c1 [NUTLIN-3] | – | – | Toxic
72 µM | 20 µM | O=C(NCc1ccc2c(c1)OCO2)[C@H]1OCC(=O)N(c2cccc(Cl)c2)[C@@H]1c1ccc(Cl)cc1 (racemic) | 66.5% | Toxic | –
– | – | COCCCN(Cc1ccc(N2CCCC2)cc1)C(=O)[C@H]1CC(=O)N(c2cccc(Cl)c2)[C@@H]1c1ccc(Cl)cc1 (relative stereo) | 24.1% | Toxic | –
– | – | COc1ccc(CNC(=O)[C@H]2OCC(=O)N(c3ccc(Cc4ccncc4)cc3)[C@@H]2c2ccc(Cl)cc2)cc1 (mixture of isomers) | 6.4% | Toxic | –
– | – | CCOc1cccc(CNC(=O)[C@H]2OCC(=O)N(c3ccc(F)c(Cl)c3)[C@@H]2c2cccc(F)c2)c1 (racemic) | 1.6% | Toxic | –
– | – | CCOc1ccc(CNC(=O)[C@H]2CC(=O)N(c3cccc(Cl)c3)[C@@H]2c2ccc(Cl)cc2)cc1 (racemic) | 27.2% | Toxic | –
– | – | Cc1cccc([C@@H]2[C@@H](C(=O)NCc3cccnc3)OCC(=O)N2c2ccc(F)c(Cl)c2)c1 (racemic) | 12.4% | Toxic | –
– | – | Cc1ccc(CNC(=O)[C@H]2OCC(=O)N(c3ccc(F)c(Cl)c3)[C@@H]2c2cccc(C)c2)cc1 (racemic) | 9.5% | Toxic | –
– | – | O=C(NCc1ccc(-n2ccnc2)cc1)[C@H]1OCC(=O)N(c2cccc(Cl)c2)[C@@H]1c1cccc(C(F)(F)F)c1 (racemic) | 39.3% | Toxic | –
– | – | Cc1cccc([C@@H]2[C@@H](C(=O)NCc3ccc(Cl)cc3)OCC(=O)N2c2ccc(F)c(Cl)c2)c1 (racemic) | 16.8% | Toxic | –
– | – | Cc1cccc([C@@H]2[C@@H](C(=O)NCCc3ccc(Cl)cc3)OCC(=O)N2c2ccc(F)c(Cl)c2)c1 (racemic) | 14.3% | Toxic | –
– | – | COCCCN(Cc1ccc(N(C)C)cc1)C(=O)[C@H]1OCC(=O)N(c2ccc(Cc3ccncc3)cc2)[C@@H]1c1ccc(Cl)cc1 (racemic) | 11.1% | Toxic | –
– | – | CC(C)Oc1ccc([C@@H]2[C@@H](C(=O)NCc3ccccc3CN3CCOCC3)CCC(=O)N2c2ccc(Cc3ccncc3)cc2)cc1 (mixture of isomers) | 1.6% | Toxic | –
